Measured values published in patent EP4778531A1, “MUSCLE RELAXANT ANTAGONIST FOR REVERSAL FOR BENZYLISOQUINOLINE MUSCLE RELAXANT” (priority 2023, dated 2025).

Assays:
[1] = tested on: Hypersensitivity-Related Factors; experiment: Antibody array (Ary028 immune chip kit): hypersensitivity-related factors after repeated dosing; type: in vivo; conditions: ICR mice; tail vein once daily for 5 days; Adamgammadex sodium 1 g/kg, Sugammadex sodium 1 mg/kg, Neostigmine 0.3 mg/kg; pooled plasma of 2 mice; N.D. = below minimum detection limit
Description: An antibody array is a type of protein chip characterized by miniaturization, integration, and high throughput. It can be used to detect the expression abundance of proteins related to a specific physiological or pathological process. The principle involves arranging capture antibodies on a membrane or glass slide, incubating with the sample, adding biotin-labeled antibodies against the target proteins, and finally using HRP-streptavidin or fluorescein-streptavidin to detect the chip signal. Signals are detected using chemiluminescence or HiLyte™ Fluor 555-streptavidin.
In this experiment, ICR mice were randomly divided into a blank group, Adamgammadex sodium (1 g/kg) group, Sugammadex sodium (1 mg/kg) group, and Neostigmine (0.3 mg/kg) group, with 2 mice per group. Mice in each group given the corresponding dosage of compound via the tail vein once daily for 5 consecutive days. On the last day after administration, plasma from the 2 animals per group was mixed and detected using the Ary028 immune chip kit. Specific detection steps were as follows: • (1) Sample volume determination: 200 µL serum sample per Array unit. (2) Blocking protein chip: Each membrane was blocked with 2 mL of corresponding Array Buffer, incubated on a shaker for 1 hour. (3) Sample processing: Samples were diluted with corresponding Array Buffer to a volume of 1.5 mL per membrane, the corresponding Array unit was added, and incubated overnight with the Array protein membrane at 4°C. (4) Membranes were washed three times with corresponding Wash buffer, then diluted detection antibody was added and incubated at room temperature for 1 h. (5) Membranes were washed three times with corresponding Wash buffer, streptavidin-HRP was added and incubated for 30min at room temperature with shaking. (6) Membranes were washed three times with corresponding Wash buffer, 1 mL of chemiluminescent reagent was added to each well, and developed on a chemiluminescence imager. (7) Fluorescence intensity was used to represent the relative concentration of the corresponding protein.

[2] = tested on: cisatracurium-induced guinea pig muscle relaxation model; experiment: Arterial blood pressure and heart rate in the cisatracurium muscle relaxation model; type: in vivo, Hartley guinea pigs
Description: Ninety (90) qualified Hartley guinea pigs, male, were used. Sixty (60) animals were randomly divided into 6 experimental groups based on body weight using a stratified random method: negative control group, positive control group, low-dose test group, medium-dose test group, high-dose test group, and combination group, with 10 animals per group (n=10). The remaining animals served as spares. The negative control group received 0.9% sodium chloride. The positive control group received 0.0625 mg/kg neostigmine methylsulfate (referred to as neostigmine). The low-dose test group received 10 mg/kg adamgammadex sodium. The medium-dose test group received 20 mg/kg adamgammadex sodium. The high-dose test group received 40 mg/kg adamgammadex sodium. The combination group received 10 mg/kg adamgammadex sodium and 0.03125 mg/kg neostigmine. The administration volume for all groups was 1 mL/kg.
Adaptive feeding was conducted after the quarantine period. On the day of the experiment, guinea pigs were weighed, administered atropine (0.1 mg/kg) intramuscularly, and then anesthetized with an intraperitoneal injection of anesthetic (pentobarbital sodium 10 mg/kg, urethane 1000 mg/kg). After fixation, the animals were intubated and connected to a small animal ventilator. Both external jugular veins and the right carotid artery were cannulated. The left jugular vein was used for cisatracurium infusion, the right jugular vein for injection of different test substances, and the carotid artery was connected to a multi-channel physiological signal acquisition and processing system for continuous monitoring of arterial blood pressure and heart rate. Electrode patches were subcutaneously placed behind the left femur and tibia of the guinea pig, and two stimulating electrodes of the neuromuscular monitor were fixed to the two electrode patches. The left hind paw was fixed on a custom-made platform. A sensor was fixed to the skin surface over the gastrocnemius muscle of the left hind limb, and a skin temperature probe was fixed to a flat area of skin. Continuous single-twitch stimulation was applied at 1 Hz. After the twitch height stabilized, the mode was switched to train-of-four stimulation (TOF mode, stimulus current 5 mA, frequency 2 Hz, pulse width 0.2 ms, interval between trains 15 s) for at least 5 min. Calibration was then performed using Calibration Mode 2, followed by TOF mode stimulation. After obtaining a stable stimulation response for at least 2 min, cisatracurium solution was infused intravenously using a dual-channel micro-infusion pump, and the start time of infusion was recorded. […] At this point, cisatracurium infusion was stopped. After stopping the infusion, neuromuscular function was allowed to recover spontaneously. When neuromuscular function reached moderate recovery, the test drug formulation was administered intravenously. Neuromuscular function was allowed to recover completely, and the administration time was recorded (Figure 1). Using the time of spontaneous recovery to moderate neuromuscular function (TOF50) as zero point, the times for recovery from TOF50 to TOF75, TOF75 to TOF90, and TOF50 to TOF90 were calculated for each animal (Table 1-2). Arterial blood pressure (systolic, diastolic, mean arterial pressure) and heart rate were recorded before cisatracurium infusion, at the time cisatracurium infusion was stopped, at the time of moderate neuromuscular recovery, and at the time of complete neuromuscular function recovery (Tables 3-7). Data were expressed as Mean ± SD. Statistical T-tests were performed using SPSS software to evaluate differences in blood pressure, heart rate, and residual neuromuscular blockade recovery times. P < 0.05 was considered statistically significant.

[3] = high-dose test group, 40 mg/kg i.v.
[4] = low-dose test group, 10 mg/kg i.v.
[5] = medium-dose test group, 20 mg/kg i.v.

Substance: Adamgammadex sodium [Compound 1]
- Fluorescence Intensity CCL12 (Monocyte chemotactic receptor 5) [1]: 168.83
- Fluorescence Intensity IL-4 (Interleukin 4) [1]: 225.32
- Fluorescence Intensity IL-6 (Interleukin-6) [1]: 89.83
- effect on animal blood pressure or heart rate (in words) ([2]; 10, 20, and 40 mg/kg): no effect on animal blood pressure or heart rate
- Heart rate Administration [2, 3]: 258+18 bmp
- Heart rate Complete Recovery [2, 3]: 258+16 bmp
- Heart rate Moderate Recovery [2, 3]: 257+18 bmp
- Heart rate Muscle Relaxation End [2, 3]: 249±21 bmp
- Heart rate Muscle Relaxation Start [2, 3]: 243+27 bmp
- Mean Arterial Pressure mAP Administration [2, 3]: 70±8 mmHg
- Mean Arterial Pressure mAP Complete Recovery [2, 3]: 73+10 mmHg
- Mean Arterial Pressure mAP Moderate Recovery [2, 3]: 72+8 mmHg
- Mean Arterial Pressure mAP Muscle Relaxation End [2, 3]: 65+10 mmHg
- Mean Arterial Pressure mAP Muscle Relaxation Start [2, 3]: 64+12 mmHg
- Mean Diastolic Pressure mDP Administration [2, 3]: 60+7 mmHg
- Mean Diastolic Pressure mDP Complete Recovery [2, 3]: 63±9 mmHg
- Mean Diastolic Pressure mDP Moderate Recovery [2, 3]: 62±8 mmHg
- Mean Diastolic Pressure mDP Muscle Relaxation End [2, 3]: 56+9 mmHg
- Mean Diastolic Pressure mDP Muscle Relaxation Start [2, 3]: 56+12 mmHg
- Mean Pulse Pressure Administration [2, 3]: 21±5 mmHg
- Mean Pulse Pressure Complete Recovery [2, 3]: 21+5 mmHg
- Mean Pulse Pressure Moderate Recovery [2, 3]: 21+4 mmHg
- Mean Pulse Pressure Muscle Relaxation End [2, 3]: 19±5 mmHg
- Mean Pulse Pressure Muscle Relaxation Start [2, 3]: 18+4 mmHg
- Mean Systolic Pressure mSP Administration [2, 3]: 81±10 mmHg
- Mean Systolic Pressure mSP Complete Recovery [2, 3]: 84±11 mmHg
- Mean Systolic Pressure mSP Moderate Recovery [2, 3]: 83±9 mmHg
- Mean Systolic Pressure mSP Muscle Relaxation End [2, 3]: 75±11 mmHg
- Mean Systolic Pressure mSP Muscle Relaxation Start [2, 3]: 74±12 mmHg
- Heart rate Administration [2, 4]: 269+20 bmp
- Heart rate Complete Recovery [2, 4]: 270+18 bmp
- Heart rate Moderate Recovery [2, 4]: 268+20 bmp
- Heart rate Muscle Relaxation End [2, 4]: 261+20 bmp
- Heart rate Muscle Relaxation Start [2, 4]: 259+30 bmp
- Mean Arterial Pressure mAP Administration [2, 4]: 75+15 mmHg
- Mean Arterial Pressure mAP Complete Recovery [2, 4]: 76+13 mmHg
- Mean Arterial Pressure mAP Moderate Recovery [2, 4]: 74+10 mmHg
- Mean Arterial Pressure mAP Muscle Relaxation End [2, 4]: 70+11 mmHg
- Mean Arterial Pressure mAP Muscle Relaxation Start [2, 4]: 70±16 mmHg
- Mean Diastolic Pressure mDP Administration [2, 4]: 67+13 mmHg
- Mean Diastolic Pressure mDP Complete Recovery [2, 4]: 68+11 mmHg
- Mean Diastolic Pressure mDP Moderate Recovery [2, 4]: 65+8 mmHg
- Mean Diastolic Pressure mDP Muscle Relaxation End [2, 4]: 62+9 mmHg
- Mean Diastolic Pressure mDP Muscle Relaxation Start [2, 4]: 61+14 mmHg
- Mean Pulse Pressure Administration [2, 4]: 19+6 mmHg
- Mean Pulse Pressure Complete Recovery [2, 4]: 18+6 mmHg
- Mean Pulse Pressure Moderate Recovery [2, 4]: 18±5 mmHg
- Mean Pulse Pressure Muscle Relaxation End [2, 4]: 17+4 mmHg
- Mean Pulse Pressure Muscle Relaxation Start [2, 4]: 18±5 mmHg
- Mean Systolic Pressure mSP Administration [2, 4]: 85±18 mmHg
- Mean Systolic Pressure mSP Complete Recovery [2, 4]: 86±16 mmHg
- Mean Systolic Pressure mSP Moderate Recovery [2, 4]: 83±12 mmHg
- Mean Systolic Pressure mSP Muscle Relaxation End [2, 4]: 79±12 mmHg
- Mean Systolic Pressure mSP Muscle Relaxation Start [2, 4]: 79±18 mmHg
- Heart rate Administration [2, 5]: 259+38 bmp
- Heart rate Complete Recovery [2, 5]: 263+36 bmp
- Heart rate Moderate Recovery [2, 5]: 261+35 bmp
- Heart rate Muscle Relaxation End [2, 5]: 247+42 bmp
- Heart rate Muscle Relaxation Start [2, 5]: 242+43 bmp
- Mean Arterial Pressure mAP Administration [2, 5]: 70+8 mmHg
- Mean Arterial Pressure mAP Complete Recovery [2, 5]: 73+6 mmHg
- Mean Arterial Pressure mAP Moderate Recovery [2, 5]: 74+7 mmHg
- Mean Arterial Pressure mAP Muscle Relaxation End [2, 5]: 65+10 mmHg
- Mean Arterial Pressure mAP Muscle Relaxation Start [2, 5]: 64±8 mmHg
- Mean Diastolic Pressure mDP Administration [2, 5]: 61+8 mmHg
- Mean Diastolic Pressure mDP Complete Recovery [2, 5]: 64+6 mmHg
- Mean Diastolic Pressure mDP Moderate Recovery [2, 5]: 64+6 mmHg
- Mean Diastolic Pressure mDP Muscle Relaxation End [2, 5]: 57+9 mmHg
- Mean Diastolic Pressure mDP Muscle Relaxation Start [2, 5]: 56+8 mmHg
- Mean Pulse Pressure Administration [2, 5]: 19±3 mmHg
- Mean Pulse Pressure Complete Recovery [2, 5]: 20+4 mmHg
- Mean Pulse Pressure Moderate Recovery [2, 5]: 20+3 mmHg
- Mean Pulse Pressure Muscle Relaxation End [2, 5]: 18±3 mmHg
- Mean Pulse Pressure Muscle Relaxation Start [2, 5]: 18±3 mmHg
- Mean Systolic Pressure mSP Administration [2, 5]: 80±8 mmHg
- Mean Systolic Pressure mSP Complete Recovery [2, 5]: 84±7 mmHg
- Mean Systolic Pressure mSP Moderate Recovery [2, 5]: 84±7 mmHg
- Mean Systolic Pressure mSP Muscle Relaxation End [2, 5]: 75±10 mmHg
- Mean Systolic Pressure mSP Muscle Relaxation Start [2, 5]: 74±9 mmHg
